Assay results taken from article PMC5218480 (PLoS ONE, 2017).

System: MV-4-11 cells
Assay: Gene expression microarray analysis (Affymetrix PrimeView) and GSEA
Type: cell-based, human
Set-up: RFU PODN (11730768_x_at) / Fold change /veh PODN (11730768_x_at) / RFU LINC00158 (11744669_a_at) / Fold change /veh LINC00158 (11744669_a_at) / RFU DUSP10 (11751237_a_at) / Fold change /veh DUSP10 (11751237_a_at) / RFU ID3 (11757404_x_at) / Fold change /veh ID3 (11757404_x_at) / RFU PLEKHG5 (11737974_s_at) / Fold change /veh PLEKHG5 (11737974_s_at) / RFU LRRC4B (11730491_at) / Fold change /veh LRRC4B (11730491_at) / RFU GIMAP4 (11747438_a_at) / Fold change /veh GIMAP4 (11747438_a_at) / RFU KRT8 (11758183_x_at) / Fold change /veh KRT8 (11758183_x_at) / RFU CNN1 (11734310_a_at) / Fold change /veh CNN1 (11734310_a_at) / RFU VPS37D (11726825_at) / Fold change /veh VPS37D (11726825_at) / RFU C10orf10 (11716522_x_at) / Fold change /veh C10orf10 (11716522_x_at) / RFU KIR2DL2 /// KIR2DL4 /// KIR2DL5A /// KIR2DL5B /// KIR2DS1 /// KIR2DS2 /// KIR2DS3 /// KIR2DS4 /// KIR3DL3 /// KIR3DL3 /// KIR3DS1 (11738374_at) / Fold change /veh KIR2DL2 /// KIR2DL4 /// KIR2DL5A /// KIR2DL5B /// KIR2DS1 /// KIR2DS2 /// KIR2DS3 /// KIR2DS4 /// KIR3DL3 /// KIR3DL3 /// KIR3DS1 (11738374_at) / RFU C1QL1 (11718748_at) / Fold change /veh C1QL1 (11718748_at) / RFU TMPRSS4 (11747572_a_at) / Fold change /veh TMPRSS4 (11747572_a_at) / RFU HAMP (11756126_x_at) / Fold change /veh HAMP (11756126_x_at) / RFU RNFT2 (11725882_a_at) / Fold change /veh RNFT2 (11725882_a_at) / RFU NR4A2 (11747474_a_at) / Fold change /veh NR4A2 (11747474_a_at) / RFU ABCC12 (11746883_a_at) / Fold change /veh ABCC12 (11746883_a_at) / RFU TMEM136 (11760407_x_at) / Fold change /veh TMEM136 (11760407_x_at) / RFU CLDN22 /// WWC2 (11732394_at) / Fold change /veh CLDN22 /// WWC2 (11732394_at) / RFU HLA-DPB1 (11760878_x_at) / Fold change /veh HLA-DPB1 (11760878_x_at) / RFU SPINT1 (11716480_a_at) / Fold change /veh SPINT1 (11716480_a_at) / RFU GAP43 (11754022_s_at) / Fold change /veh GAP43 (11754022_s_at) / RFU A4GNT (11735810_at) / Fold change /veh A4GNT (11735810_at) / RFU PRB3 (11715151_x_at) / Fold change /veh PRB3 (11715151_x_at) / RFU TUBB4B (11761932_at) / Fold change /veh TUBB4B (11761932_at) / RFU CAPN14 (11732068_a_at) / Fold change /veh CAPN14 (11732068_a_at) / RFU TMCC2 (11721928_a_at) / Fold change /veh TMCC2 (11721928_a_at) / RFU IRGQ (11745062_a_at) / Fold change /veh IRGQ (11745062_a_at) / RFU FAM174B (11720279_a_at) / Fold change /veh FAM174B (11720279_a_at) / RFU TMPRSS4 (11748680_a_at) / Fold change /veh TMPRSS4 (11748680_a_at) / RFU FAM212B (11763350_a_at) / Fold change /veh FAM212B (11763350_a_at) / RFU PLEKHG5 (11743358_a_at) / Fold change /veh PLEKHG5 (11743358_a_at) / RFU ZSCAN30 (11745921_a_at) / Fold change /veh ZSCAN30 (11745921_a_at) / RFU CMKLR1 (11741424_a_at) / Fold change /veh CMKLR1 (11741424_a_at) / RFU LOC101060620 /// MAPK8IP1 (11723275_at) / Fold change /veh LOC101060620 /// MAPK8IP1 (11723275_at) / RFU SPTSSB (11747773_x_at) / Fold change /veh SPTSSB (11747773_x_at) / RFU PRSS12 (11739890_at) / Fold change /veh PRSS12 (11739890_at) / RFU BIN1 (11741810_x_at) / Fold change /veh BIN1 (11741810_x_at) / RFU WNT11 (11732464_a_at) / Fold change /veh WNT11 (11732464_a_at) / RFU C10orf10 (11716521_a_at) / Fold change /veh C10orf10 (11716521_a_at) / RFU C5orf56 (11738089_at) / Fold change /veh C5orf56 (11738089_at) / RFU CYB561 (11721691_x_at) / Fold change /veh CYB561 (11721691_x_at) / RFU ANKRD19P (11752326_a_at) / Fold change /veh ANKRD19P (11752326_a_at) / RFU OR2T12 /// OR2T33 /// OR2T8 (11738714_s_at) / Fold change /veh OR2T12 /// OR2T33 /// OR2T8 (11738714_s_at) / RFU VCAN (11748164_a_at) / Fold change /veh VCAN (11748164_a_at) / RFU JSRP1 (11732532_at) / Fold change /veh JSRP1 (11732532_at) / RFU KRTAP10-11 (11738290_x_at) / Fold change /veh KRTAP10-11 (11738290_x_at) / RFU MYO3A (11730013_a_at) / Fold change /veh MYO3A (11730013_a_at) / RFU EBF3 (11725865_a_at) / Fold change /veh EBF3 (11725865_a_at) / RFU CAMK2N1 (11719241_x_at) / Fold change /veh CAMK2N1 (11719241_x_at) / RFU C5orf56 (11738088_a_at) / Fold change /veh C5orf56 (11738088_a_at) / RFU OLFML3 (11715873_a_at) / Fold change /veh OLFML3 (11715873_a_at) / RFU LOC100653217 /// NTM (11731650_a_at) / Fold change /veh LOC100653217 /// NTM (11731650_a_at) / RFU MAPK11 (11762145_a_at) / Fold change /veh MAPK11 (11762145_a_at) / RFU FIZ1 (11724087_x_at) / Fold change /veh FIZ1 (11724087_x_at) / RFU OASL (11726364_x_at) / Fold change /veh OASL (11726364_x_at) / RFU SOX15 (11748057_x_at) / Fold change /veh SOX15 (11748057_x_at) / RFU CD79A (11719716_a_at) / Fold change /veh CD79A (11719716_a_at) / RFU HIST1H1D (11736915_at) / Fold change /veh HIST1H1D (11736915_at) / RFU CASKIN2 (11723855_a_at) / Fold change /veh CASKIN2 (11723855_a_at) / RFU LOC730098 (11760151_x_at) / Fold change /veh LOC730098 (11760151_x_at) / RFU OR4N2 (11742367_at) / Fold change /veh OR4N2 (11742367_at) / RFU PRRT2 (11749266_a_at) / Fold change /veh PRRT2 (11749266_a_at) / RFU SNX32 (11753110_a_at) / Fold change /veh SNX32 (11753110_a_at) / RFU CDHR5 (11726645_a_at) / Fold change /veh CDHR5 (11726645_a_at) / RFU RCAN1 (11760418_a_at) / Fold change /veh RCAN1 (11760418_a_at) / RFU FAM167A (11723789_a_at) / Fold change /veh FAM167A (11723789_a_at) / RFU FAM26E (11764081_at) / Fold change /veh FAM26E (11764081_at) / RFU ISYNA1 (11749810_s_at) / Fold change /veh ISYNA1 (11749810_s_at) / RFU ACY1 (11761880_at) / Fold change /veh ACY1 (11761880_at) / RFU 11764098_at / Fold change /veh 11764098_at / RFU SAMD14 (11745864_x_at) / Fold change /veh SAMD14 (11745864_x_at) / RFU NPB (11741838_a_at) / Fold change /veh NPB (11741838_a_at) / RFU TMPRSS6 (11731388_a_at) / Fold change /veh TMPRSS6 (11731388_a_at) / RFU KRTAP10-2 (11738614_at) / Fold change /veh KRTAP10-2 (11738614_at) / RFU ARHGAP8 /// PRR5-ARHGAP8 (11727945_x_at) / Fold change /veh ARHGAP8 /// PRR5-ARHGAP8 (11727945_x_at) / RFU KRTAP5-7 /// NADSYN1 (11734609_at) / Fold change /veh KRTAP5-7 /// NADSYN1 (11734609_at) / RFU RASL12 (11751679_a_at) / Fold change /veh RASL12 (11751679_a_at) / RFU CDKN2B (11736163_a_at) / Fold change /veh CDKN2B (11736163_a_at) / RFU PRF1 (11729649_at) / Fold change /veh PRF1 (11729649_at) / RFU, ZNF638 /// ZNF638-IT1 / Fold change vs veh, ZNF638 /// ZNF638-IT1 / RFU, PANK3 / Fold change vs veh, PANK3 / RFU, SH3YL1 / Fold change vs veh, SH3YL1 / RFU, ZEB2 / Fold change vs veh, ZEB2 / RFU, NRIP1 / Fold change vs veh, NRIP1 / RFU, PTTG1IP / Fold change vs veh, PTTG1IP / RFU, CAPN2 / Fold change vs veh, CAPN2 / RFU, MED14 / Fold change vs veh, MED14 / RFU, SNORA58 / Fold change vs veh, SNORA58 / RFU, C1orf63 / Fold change vs veh, C1orf63 / RFU, LRRFIP1 / Fold change vs veh, LRRFIP1 / RFU, NDUFAF7 / Fold change vs veh, NDUFAF7 / RFU, SLC12A2 / Fold change vs veh, SLC12A2 / RFU, IBTK / Fold change vs veh, IBTK / RFU, ESF1 / Fold change vs veh, ESF1 / Fold change vs veh, TMEM50B / RFU, TAOK1 / Fold change vs veh, TAOK1 / RFU, ACBD3 / Fold change vs veh, ACBD3 / RFU, TMA16 / Fold change vs veh, TMA16 / RFU, RWDD3 / Fold change vs veh, RWDD3 / RFU, BCAT1 / Fold change vs veh, BCAT1 / RFU, EDEM3 / Fold change vs veh, EDEM3 / RFU, TMEM33 / Fold change vs veh, TMEM33 / RFU, WDR75 / Fold change vs veh, WDR75 / RFU, AHCTF1 / Fold change vs veh, AHCTF1 / RFU, TFRC / Fold change vs veh, TFRC / RFU, ZDHHC17 / Fold change vs veh, ZDHHC17 / RFU, NOM1 / Fold change vs veh, NOM1 / RFU, ARL8B / Fold change vs veh, ARL8B / RFU, ZBTB11 / Fold change vs veh, ZBTB11 / RFU, TAMM41 / Fold change vs veh, TAMM41 / RFU, KIAA1704 /// LOC100996395 / Fold change vs veh, KIAA1704 /// LOC100996395 / RFU, ING1 / Fold change vs veh, ING1 / RFU, TRMT61B / Fold change vs veh, TRMT61B / RFU, FUBP3 / Fold change vs veh, FUBP3 / RFU, TP53 / Fold change vs veh, TP53 / RFU, TNKS2 / Fold change vs veh, TNKS2 / RFU, ZFP14 / Fold change vs veh, ZFP14 / RFU, ACTR2 / Fold change vs veh, ACTR2 / RFU, PPP3R1 / Fold change vs veh, PPP3R1 / RFU, PIK3R1 / Fold change vs veh, PIK3R1 / RFU, HNRNPA1 / Fold change vs veh, HNRNPA1 / RFU, RNF170 / Fold change vs veh, RNF170 / RFU, ZNF28 / Fold change vs veh, ZNF28 / RFU, RNGTT / Fold change vs veh, RNGTT / RFU, OGT / Fold change vs veh, OGT / RFU, BRD1 / Fold change vs veh, BRD1 / RFU, MARS / Fold change vs veh, MARS / RFU, ZNF655 / Fold change vs veh, ZNF655 / RFU, FAHD1 / Fold change vs veh, FAHD1 / RFU, BDP1 / Fold change vs veh, BDP1 / RFU, LRRCC1 / Fold change vs veh, LRRCC1 / RFU, ARID1A / Fold change vs veh, ARID1A / RFU, ZNF146 / Fold change vs veh, ZNF146 / RFU, ZNF330 / Fold change vs veh, ZNF330 / RFU, GPN3 / Fold change vs veh, GPN3 / RFU, C9orf123 / Fold change vs veh, C9orf123 / RFU, N4BP2L2 / Fold change vs veh, N4BP2L2 / RFU, ARFIP1 / Fold change vs veh, ARFIP1 / RFU, FAM179B / Fold change vs veh, FAM179B / RFU, BCL10 / Fold change vs veh, BCL10 / RFU, UHRF1BP1L / Fold change vs veh, UHRF1BP1L / RFU, BET1 / Fold change vs veh, BET1 / RFU, CNOT2 / Fold change vs veh, CNOT2 / RFU, ZNF268 / Fold change vs veh, ZNF268 / Fold change vs veh, ZNF507 / RFU, DGCR2 / Fold change vs veh, DGCR2 / RFU, WDSUB1 / Fold change vs veh, WDSUB1 / Fold change vs veh, HSP90B1 /// MIR3652 / RFU, ADSS / Fold change vs veh, ADSS / RFU, GK / Fold change vs veh, GK / RFU, ZNF148 / Fold change vs veh, ZNF148 / RFU, TAF9 / Fold change vs veh, TAF9 / RFU, SLC1A5 / Fold change vs veh, SLC1A5 / RFU, SLMO2 / Fold change vs veh, SLMO2 / RFU, ABCC4 / Fold change vs veh, ABCC4 / RFU, LOC101060439 /// RAP1B / Fold change vs veh, LOC101060439 /// RAP1B / RFU, RFX7 / Fold change vs veh, RFX7 / RFU, GTPBP10 / Fold change vs veh, GTPBP10 / RFU, CNEP1R1 / Fold change vs veh, CNEP1R1 / RFU, BIVM-ERCC5 /// ERCC5 / Fold change vs veh, BIVM-ERCC5 /// ERCC5 / RFU, ILF3 / Fold change vs veh, ILF3 / RFU 11762660_at / Fold change /veh 11762660_at / RFU VCAN (11757783_s_at) / Fold change /veh VCAN (11757783_s_at) / RFU DDX43 (11728927_at) / Fold change /veh DDX43 (11728927_at) / RFU KRT8 (11758188_x_at) / Fold change /veh KRT8 (11758188_x_at) / RFU NKD1 (11759106_at) / Fold change /veh NKD1 (11759106_at) / RFU SRD5A1 (11742802_a_at) / Fold change /veh SRD5A1 (11742802_a_at) / RFU TPSAB1 /// TPSB2 (11721975_s_at) / Fold change /veh TPSAB1 /// TPSB2 (11721975_s_at) / RFU GSTM3 (11746129_a_at) / Fold change /veh GSTM3 (11746129_a_at) / RFU IL23R (11737362_x_at) / Fold change /veh IL23R (11737362_x_at) / RFU TMEM51 (11727254_a_at) / Fold change /veh TMEM51 (11727254_a_at) / RFU PIWIL2 (11732686_x_at) / Fold change /veh PIWIL2 (11732686_x_at) / RFU ORM1 (11744905_x_at) / Fold change /veh ORM1 (11744905_x_at) / RFU CCDC152 (11743942_at) / Fold change /veh CCDC152 (11743942_at) / RFU ECM1 (11717891_a_at) / Fold change /veh ECM1 (11717891_a_at) / RFU IL23R (11748794_a_at) / Fold change /veh IL23R (11748794_a_at) / RFU TNFAIP8L3 (11732012_x_at) / Fold change /veh TNFAIP8L3 (11732012_x_at) / RFU MBOAT4 (11741988_at) / Fold change /veh MBOAT4 (11741988_at) / RFU 11764193_at / Fold change /veh 11764193_at / RFU TMEM53 (11763286_at) / Fold change /veh TMEM53 (11763286_at) / RFU MAGEB2 (11727129_at) / Fold change /veh MAGEB2 (11727129_at) / RFU TMEM200A (11744735_a_at) / Fold change /veh TMEM200A (11744735_a_at) / RFU CCDC152 (11751479_a_at) / Fold change /veh CCDC152 (11751479_a_at) / RFU FAM211A (11726209_a_at) / Fold change /veh FAM211A (11726209_a_at) / RFU RGS16 (11746705_a_at) / Fold change /veh RGS16 (11746705_a_at) / RFU VCAN (11755009_s_at) / Fold change /veh VCAN (11755009_s_at) / RFU RHOB (11743442_s_at) / Fold change /veh RHOB (11743442_s_at) / RFU RGS16 (11720943_a_at) / Fold change /veh RGS16 (11720943_a_at) / RFU RGS16 (11720944_at) / Fold change /veh RGS16 (11720944_at) / RFU, VPS4B / Fold change vs veh, VPS4B / RFU, CREB1 / Fold change vs veh, CREB1 / RFU, DNAJC13 / Fold change vs veh, DNAJC13 / RFU, GNAQ / Fold change vs veh, GNAQ / RFU, CDK5R1 / Fold change vs veh, CDK5R1 / RFU, ZRANB3 / Fold change vs veh, ZRANB3 / RFU, CUL4A / Fold change vs veh, CUL4A / RFU, CCNY / Fold change vs veh, CCNY / RFU, UFL1 / Fold change vs veh, UFL1 / RFU, COG3 / Fold change vs veh, COG3 / RFU, DIAPH2 / Fold change vs veh, DIAPH2 / RFU, SKA2 / Fold change vs veh, SKA2 / RFU, AFF3 / Fold change vs veh, AFF3 / RFU, LMF1 / Fold change vs veh, LMF1 / RFU, IPO11 / Fold change vs veh, IPO11 / RFU, DFFB / Fold change vs veh, DFFB / RFU, FOXP1 / Fold change vs veh, FOXP1 / RFU, CARD8 / Fold change vs veh, CARD8 / RFU, STRN3 / Fold change vs veh, STRN3 / RFU, ADK / Fold change vs veh, ADK / RFU, RASSF2 / Fold change vs veh, RASSF2 / RFU, WIPF1 / Fold change vs veh, WIPF1 / RFU, LARP1B / Fold change vs veh, LARP1B / RFU, RASA1 / Fold change vs veh, RASA1 / RFU, RB1 / Fold change vs veh, RB1 / RFU, PPFIA1 / Fold change vs veh, PPFIA1 / RFU, MAT2A / Fold change vs veh, MAT2A / RFU, CCT5 / Fold change vs veh, CCT5 / RFU, WDR92 / Fold change vs veh, WDR92 / RFU, CUX1 / Fold change vs veh, CUX1 / RFU, TTC7A / Fold change vs veh, TTC7A / RFU, TMEM135 / Fold change vs veh, TMEM135 / RFU, DEPTOR / Fold change vs veh, DEPTOR / RFU, CPM / Fold change vs veh, CPM / RFU, DNAJB6 / Fold change vs veh, DNAJB6 / RFU, CACNA2D3 / Fold change vs veh, CACNA2D3 / RFU, DTX4 / Fold change vs veh, DTX4 / RFU, TFCP2 / Fold change vs veh, TFCP2 / RFU, GMCL1 /// GMCL1P1 / Fold change vs veh, GMCL1 /// GMCL1P1 / RFU, AEBP2 / Fold change vs veh, AEBP2 / RFU, SNHG1 /// SNORD22 /// SNORD25 /// SNORD26 /// SNORD27 /// SNORD28 /// SNORD29 /// SNORD31 / Fold change vs veh, SNHG1 /// SNORD22 /// SNORD25 /// SNORD26 /// SNORD27 /// SNORD28 /// SNORD29 /// SNORD31 / Fold change (Aza/veh), C12orf56 (ProbeSet 11735607_a_at) / Fold change (ACY-1035/veh), C12orf56 (ProbeSet 11735607_a_at) / Fold change (Aza/veh), FGFR1OP (ProbeSet 11751329_s_at) / Fold change (ACY-1035/veh), FGFR1OP (ProbeSet 11751329_s_at) / Fold change (Aza/veh), VPS36 (ProbeSet 11739960_a_at) / Fold change (ACY-1035/veh), VPS36 (ProbeSet 11739960_a_at) / RFU SYPL1 (11715823_x_at) / Fold change /veh SYPL1 (11715823_x_at) / RFU IGFBP7 (11715501_s_at) / Fold change /veh IGFBP7 (11715501_s_at) / RFU REEP3 (11722064_at) / Fold change /veh REEP3 (11722064_at) / RFU IGLL1 (11728026_x_at) / Fold change /veh IGLL1 (11728026_x_at): dose or concentration left out as unconfirmed
Conditions: MV-4-11 cells, 48 hours

## Nc1ccc(-c2cccs2)cc1NC(=O)c1ccc2c(c1)cc(C1CC1)n2CCN1CCOCC1 [ACY-1035]
  Fold change /veh KRTAP10-2 (11738614_at): 0.99
